# Measured values published in patent publication US7258999B2, “PTH responsive gene” (Wyeth, priority 2002, dated 2007).
# Assays:
# [1] = tested on: PAIGB expression in ROS 17/2.8 cells; assay: Real time PCR of PAIGB expression in ROS 17/2.8 cells; format: cell-based, rat; settings: for effect on PAIGB expression after 4 hours of treatment: estrogen 10 nM, tamoxifen 0.1 μM, BMP2 300 ng/ml, calcitonin 5 ng/ml
# From the text: Applicants performed multiplex real time PCR (TaqMan) analysis on previously DNAsed samples using gene specific probe and primers and 18S ribosomal RNA probe and primer sets purchased from Applied Biosystem. (Foster City, Calif.) The samples were DNAsed according to the protocol provided by Ambion (DNA-free kit). TaqMan probe and primers for PAIGB was identify using Primer Express computer program. The sequence for rat PAIGB TaqMan probe was 6FAM-5′[…] (SEQ ID NO: 16) forward and reverse primers were 5′[…] 3′ (SEQ ID NO:17) and 5′ […] 3′ (SEQ ID NO:18) respectively. The final concentrations for probes were 500 nM and 40 nM for PAIGB and 18S ribosomal RNA or GAPDH respectively. The concentrations of the primers were 500 nM for PAIGB forward and reversed primers while 18S primers were 10 and 20 nM for forward and reversed primer respectively or 40 nM for GAPDH primers. Standards for rat samples were made from rat tibia or brain RNA in the range of 250 ng to 0.1 ng, while standards for mouse specific TaqMan were made from mouse brain RNA and human standards from human brain RNA (Clonetech, Palo Alto, Calif.) spanning the same range of concentration. Primers and probes for mouse PAIGB were: forward 5′ […] 3′ (SEQ ID NO:19), reverse, 5′ […] (SEQ ID NO:21). Primers and probes for human PAIGB were: forward 5′ […] 3′ (SEQ ID NO:22), reverse 5′ […] 3′(SEQ ID NO: 24). The Taq-man analysis was done using ABI 7700 Sequence Detector under following conditions: 30 min at 48° C., 10 min at 95° C. and 40 cycles of 15 sec at 95° C. and 60 sec at 60° C. Analysis of real-time PCR analysis was performed using (Sequence Detector, Macintosh) program.
# Five cell types were primarily used in our experiments. Rat osteoblast cell line (ROS 17/2.8) that expresses moderate levels of PTH receptor 1 (Rodan et al, Rev. Eukaryotic Gene Expression 1:85-98, 1991) were used to perform in vitro experiments. ROS cells were maintained under standard cell culture conditions: 10% heat inactivated FBS in Dulbecco's Modified Eagle Medium with Nutrient Mixture F-12 (DMEM/F12) media, 1% Penicillin/Streptomycin and 1% Glutamax. Mouse cell line C3H10T½ (ATCC# CCL226) as a representative of mouse osteoprogenitor cell line were maintained in Eagles Minimal Essential Media (EMEM) with the addition of 10% heat inactivated FBS and 1% Penicillin/Streptomycin and 1% Glutamax. UMR106 rat osteoblastic cells (ATCC# CRL1661) were cultured in Dulbecco's Modified Eagle Medium (DMEM) supplemented with 10% heat inactivated FBS, 1% Penicillin/Streptomycin and 1% Glutamax. The U2OS human osteoblastic cells (ATCC# HTB96) were cultured in McCoy's 5A Medium Modified supplemented with 10% FBS, 1% Penicillin/Streptomycin and 1% Glutamax. The human HOB-03-CE6 cell line (Bodine, V. N. P., et. al., J. Cell. Biochem., 65: 368-387,1997) was maintained in phenol red free DMEM/F12 media supplemented with 10% heat inactivated FBS and 1% Penicillin/Streptomycin and 1% Glutamax.
# ROS 17/2.8 rat osteoblast cell line that express PTH receptor (˜80000 receptors/cell) were treated with increased doses of PTH: 1 nM, 10 nM, 100 nM and 1000 nM. Real time PCR using rat specific Taq-man probes and primers were used to examine the changes in PAIGB expression with PTH treatment.
# Time course of PTH induction of PAIGB expression was examined. ROS 17/2.8_cells were treated with 10 nM PTH and RNA was harvested at 1, 2, 4, 6, 8 and 24 hours post treatment.
# [2] = tested on: PAIGB expression in UMR106 cells; assay: Real time PCR of PAIGB expression in UMR106 cells; format: cell-based, rat
# From the text: Applicants performed multiplex real time PCR (TaqMan) analysis on previously DNAsed samples using gene specific probe and primers and 18S ribosomal RNA probe and primer sets purchased from Applied Biosystem. (Foster City, Calif.) The samples were DNAsed according to the protocol provided by Ambion (DNA-free kit). TaqMan probe and primers for PAIGB was identify using Primer Express computer program. The sequence for rat PAIGB TaqMan probe was 6FAM-5′[…] (SEQ ID NO: 16) forward and reverse primers were 5′[…] 3′ (SEQ ID NO:17) and 5′ […] 3′ (SEQ ID NO:18) respectively. The final concentrations for probes were 500 nM and 40 nM for PAIGB and 18S ribosomal RNA or GAPDH respectively. The concentrations of the primers were 500 nM for PAIGB forward and reversed primers while 18S primers were 10 and 20 nM for forward and reversed primer respectively or 40 nM for GAPDH primers. Standards for rat samples were made from rat tibia or brain RNA in the range of 250 ng to 0.1 ng, while standards for mouse specific TaqMan were made from mouse brain RNA and human standards from human brain RNA (Clonetech, Palo Alto, Calif.) spanning the same range of concentration. Primers and probes for mouse PAIGB were: forward 5′ […] 3′ (SEQ ID NO:19), reverse, 5′ […] 3′ (SEQ ID NO:20) anti-sense and probe 5′ 6FAM-[…] (SEQ ID NO:21). Primers and probes for human PAIGB were: forward 5′ […] 3′ (SEQ ID NO:22), reverse 5′ […] […]
molecule,measurement,setting,value
Nc1ncnc2c1ncn2C1CCCO1 (stereo not shown) [SQ 22536],blocking of the effect of PTH on PAIGB expression,"[1]; 200 μM, 2 hours pretreatment, then 10 nM PTH 4 hours",completely blocks
"PKC inhibitor: Protein Kinase C inhibitor (PKC)19-27, an inhibitor of PKC signaling pathway (RFARKGALR; pseudosubstrate peptide; UniProt P17252 19-27, looked up, fragment)",blocking of PTH induced PAIGB expression,"[1]; 10 μM, 2 hours pretreatment, then 10 nM PTH 4 hours",little to no effect
C[C@@H]1C[C@H]2[C@@H]3CCC4=CC(=O)C=C[C@]4(C)[C@@]3(F)[C@@H](O)C[C@]2(C)[C@@]1(O)C(=O)CO [dexamethasone],increase in PAIGB expression,"[1]; 100 nM, 4 hours",2-3 fold
CC(C)NCC(O)c1ccc(O)c(O)c1 (stereo not shown) [isoproterenol],increase in PAIGB expression,"[1]; data not shown, concentration and cell line not restated",2 fold
C=C1CC[C@H](O)C/C1=C/C=C1\CCC[C@]2(C)[C@@H]([C@H](C)CCCC(C)C)CC[C@@H]12 [vitamin D3],PAIGB expression in UMR106 cells,[2]; UMR106 cells,induced
"CCCCC[C@H](O)/C=C/[C@H]1[C@H](O)CC(=O)[C@@H]1C/C=C\CCCC(=O)O [PGE2, prostaglandin E2]",induction of PAIGB mRNA expression,"[1]; two concentrations 10 nM and 10 μM, 4 hours",only at the lower dose
CC/C(=C(\c1ccccc1)c1ccc(OCCN(C)C)cc1)c1ccccc1 [tamoxifen],effect on PAIGB expression after 4 hours of treatment,[1]; 4 hours,did not have any effect
COc1ccc(C2CNC(=O)C2)cc1OC1CCCC1 (stereo not shown) [Rolipram],PAIGB expression,"[2]; UMR 106 cells, data not shown",Increases
same,PAIGB expression,"[1]; ROS 17/2.8 cells, data not shown",Increases
calcitonin,effect on PAIGB expression after 4 hours of treatment,[1]; 4 hours,did not have any effect
